{
  "source": "patent US10040839B2",
  "about": "“Insulin derivatives and the medical uses hereof” (Novo Nordisk A/S, priority 2014, dated 2018)",
  "key": {"[1]": {"molecular_target": "T1, membrane-associated human IGF-1R (Homo sapiens, UniProt P08069)", "T1 construct": "expressed in transfected cells; host or cells: BHK cells stably transfected with pZem219B vector (plasma membrane preparation)", "T1 sequence (P08069 31-736 limits assumed)": "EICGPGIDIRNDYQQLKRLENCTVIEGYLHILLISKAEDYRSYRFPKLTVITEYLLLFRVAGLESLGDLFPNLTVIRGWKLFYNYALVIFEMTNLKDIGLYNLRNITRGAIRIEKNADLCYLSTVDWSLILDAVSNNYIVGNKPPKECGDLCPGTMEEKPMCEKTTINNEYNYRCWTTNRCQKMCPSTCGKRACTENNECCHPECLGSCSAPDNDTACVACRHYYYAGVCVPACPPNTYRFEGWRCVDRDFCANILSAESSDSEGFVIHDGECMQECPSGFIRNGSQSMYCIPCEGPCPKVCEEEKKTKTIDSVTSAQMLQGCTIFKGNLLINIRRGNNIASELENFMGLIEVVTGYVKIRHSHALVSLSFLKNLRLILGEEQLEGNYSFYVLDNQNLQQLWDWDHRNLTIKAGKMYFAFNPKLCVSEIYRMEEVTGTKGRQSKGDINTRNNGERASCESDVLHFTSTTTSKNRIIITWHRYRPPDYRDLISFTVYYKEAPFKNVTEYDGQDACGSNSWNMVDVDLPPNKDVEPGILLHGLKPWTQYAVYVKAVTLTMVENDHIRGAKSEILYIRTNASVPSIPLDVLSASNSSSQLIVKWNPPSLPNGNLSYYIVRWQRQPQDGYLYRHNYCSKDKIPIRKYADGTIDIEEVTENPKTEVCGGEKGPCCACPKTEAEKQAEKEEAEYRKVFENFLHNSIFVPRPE", "T1 sequence (P08069 741-1367 partner limits assumed)": "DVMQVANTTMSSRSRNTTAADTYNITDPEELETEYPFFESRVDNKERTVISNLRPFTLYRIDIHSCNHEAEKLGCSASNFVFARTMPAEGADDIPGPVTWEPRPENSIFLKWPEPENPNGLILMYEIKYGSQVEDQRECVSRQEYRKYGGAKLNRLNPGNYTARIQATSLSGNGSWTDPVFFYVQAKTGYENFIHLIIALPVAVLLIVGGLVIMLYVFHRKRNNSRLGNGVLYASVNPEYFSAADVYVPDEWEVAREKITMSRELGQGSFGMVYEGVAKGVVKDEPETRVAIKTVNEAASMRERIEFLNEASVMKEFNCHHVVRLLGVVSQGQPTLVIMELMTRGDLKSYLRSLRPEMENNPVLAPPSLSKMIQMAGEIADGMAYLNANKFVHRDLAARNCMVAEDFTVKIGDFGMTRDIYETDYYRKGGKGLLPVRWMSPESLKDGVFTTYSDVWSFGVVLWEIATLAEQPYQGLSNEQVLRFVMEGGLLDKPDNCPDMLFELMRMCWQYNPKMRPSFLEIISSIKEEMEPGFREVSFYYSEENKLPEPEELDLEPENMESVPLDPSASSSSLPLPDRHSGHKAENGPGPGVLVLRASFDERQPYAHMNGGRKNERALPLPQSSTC", "assay": "IGF-1 receptor affinity on membrane-associated receptors, SPA competition binding", "details": "membrane-associated cloned human IGF-1R, % relative to human insulin", "experimental": "(§1) Membrane-associated human IR and IGF-1R are purified from BHK cells stably transfected with the pZem219B vector containing either the human IR-A, IR-B or IGF-IR insert. BHK cells are harvested and homogenized in ice-cold buffer (25 mM HEPES pH 7.4, 25 mM CaCl2 and 1 mM MgCl2, 250 mg/L bacitracin, 0.1 mM Pefablock). […] The pellets are re-suspended in a minimal volume of buffer and drawn through a needle (size 23) three times before storage at −80° C. until usage.\n(§2) The relative binding affinity for either of the membrane-associated human IR-A, IR-B or IGF-1R is determined by competition binding in a SPA setup. IR assays are performed in duplicate in 96-well OptiPlates (Perkin-Elmer Life Sciences). […] Assays are terminated by centrifugation of the plate at 2000 rpm for 2 minutes and bound radioactivity quantified by counting on a TopCount NXT (Perkin-Elmer Life Sciences).\n(§3) IGF-1R assays are conducted essentially as for the IR binding assays except that membrane-associated IGF-1R and 50 pM [^125 I-Tyr31]-human IGF-1 were employed."}, "[2]": {"molecular_target": "T2, membrane-associated human IR-A (Homo sapiens, UniProt P06213)", "T2 construct": "expressed in transfected cells; host or cells: BHK cells stably transfected with pZem219B vector (plasma membrane preparation)", "T2 sequence (P06213 28-746 isoform P06213-2 limits assumed)": "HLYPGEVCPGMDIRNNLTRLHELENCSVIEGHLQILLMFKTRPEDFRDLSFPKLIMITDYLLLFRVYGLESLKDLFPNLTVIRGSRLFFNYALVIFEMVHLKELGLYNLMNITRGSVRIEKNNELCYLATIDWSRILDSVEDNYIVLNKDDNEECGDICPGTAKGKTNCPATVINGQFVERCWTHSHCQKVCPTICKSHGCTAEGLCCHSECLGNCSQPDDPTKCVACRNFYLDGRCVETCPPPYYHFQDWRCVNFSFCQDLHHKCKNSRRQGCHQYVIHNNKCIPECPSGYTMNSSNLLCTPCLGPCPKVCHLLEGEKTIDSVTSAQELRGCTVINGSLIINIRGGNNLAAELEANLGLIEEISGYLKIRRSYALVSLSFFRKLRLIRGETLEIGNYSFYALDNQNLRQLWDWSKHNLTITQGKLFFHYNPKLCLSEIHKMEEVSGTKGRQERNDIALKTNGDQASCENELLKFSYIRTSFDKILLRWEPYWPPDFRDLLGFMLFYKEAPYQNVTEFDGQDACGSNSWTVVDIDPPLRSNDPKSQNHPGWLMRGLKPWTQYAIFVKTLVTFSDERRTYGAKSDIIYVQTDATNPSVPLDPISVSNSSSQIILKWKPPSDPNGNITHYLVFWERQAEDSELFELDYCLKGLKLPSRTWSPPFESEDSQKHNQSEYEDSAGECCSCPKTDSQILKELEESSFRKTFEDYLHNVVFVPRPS", "T2 sequence (P06213 763-1382 partner limits assumed)": "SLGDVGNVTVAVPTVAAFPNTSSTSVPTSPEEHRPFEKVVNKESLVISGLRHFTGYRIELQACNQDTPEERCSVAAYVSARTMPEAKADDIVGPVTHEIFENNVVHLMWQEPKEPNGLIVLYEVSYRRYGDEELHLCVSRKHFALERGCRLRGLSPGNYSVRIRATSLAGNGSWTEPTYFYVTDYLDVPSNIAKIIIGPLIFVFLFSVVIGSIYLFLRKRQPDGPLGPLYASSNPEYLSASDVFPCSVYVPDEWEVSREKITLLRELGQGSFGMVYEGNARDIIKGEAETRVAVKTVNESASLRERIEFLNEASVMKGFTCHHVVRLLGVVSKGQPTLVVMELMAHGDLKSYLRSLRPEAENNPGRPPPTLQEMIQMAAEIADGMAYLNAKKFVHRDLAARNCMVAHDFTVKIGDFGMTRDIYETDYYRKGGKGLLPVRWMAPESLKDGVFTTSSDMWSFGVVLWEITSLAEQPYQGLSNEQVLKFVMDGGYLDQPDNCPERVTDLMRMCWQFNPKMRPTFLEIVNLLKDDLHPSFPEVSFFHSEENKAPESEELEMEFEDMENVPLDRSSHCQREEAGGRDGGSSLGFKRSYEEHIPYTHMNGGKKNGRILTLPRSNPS", "assay": "Insulin receptor affinity on membrane-associated receptors, SPA competition binding", "experimental": "as §1, §2, §3"}, "[3]": {"molecular_target": "T3, solubilised human IR-A (Homo sapiens, UniProt P06213)", "T3 construct": "made in house; host or cells: baby hamster kidney (BHK) cells overexpressing the IR-A holoreceptor", "T3 sequence (P06213 28-746 isoform P06213-2 limits assumed)": "as the sequence (P06213 28-746 isoform P06213-2 limits assumed) above", "T3 sequence (P06213 763-1382 partner limits assumed)": "as the sequence (P06213 763-1382 partner limits assumed) above", "assay": "Insulin receptor affinity on solubilised receptors, SPA competition binding, 0% HSA", "details": "solubilised cloned human insulin receptor A isoform, % relative to human insulin"}, "[4]": {"molecular_target": "T3, solubilised human IR-A", "assay": "Insulin receptor affinity on solubilised receptors, SPA competition binding, binding buffer with […] HSA", "details": "solubilised cloned human insulin receptor A isoform, % relative to human insulin"}},
  "data": [
    {"substance": "A22K(N(Eps)-Tetradecanedioyl-2×OEG), desB27, B29R, desB30 Human Insulin [Example 17]", "values": [
      {"measurement": "Relative IGF-1R affinity (@ 0.1% HSA)", "setting": "[1]", "result": 546.4, "unit": "%"},
      {"measurement": "Relative IR-A affinity (@ 0.1% HSA)", "setting": "[2]; membrane-associated cloned human IR-A, 0.1% HSA, % relative to human insulin", "result": 117.3, "unit": "%"},
      {"measurement": "IR IGF1 ratio", "setting": "[2]; ratio of IR-A to IGF-1R affinities from membrane-associated receptors", "result": 0.21},
      {"measurement": "Relative IR-A affinity (@ 0% HSA)", "setting": "[3]", "result": 241.7, "unit": "%"},
      {"measurement": "Relative IR-A affinity (@ […] HSA)", "setting": "[4]", "result": 117.9, "unit": "%"}
    ]}
  ]
}
